Laboratory results as given in patent US7388097B2, “Difluoromethyl thiazolyl carboxanilides” (Bayer CropScience AG, priority 2002, dated 2008).

Tests used:
[1] = logP determination by HPLC on reverse-phase column (C 18), EEC Directive 79/831 Annex V.A8; format: physicochemical; details: reverse-phase C18 HPLC column; pH 2.3; HPLC reverse-phase C 18; 43° C.; 0.1% aqueous phosphoric acid/acetonitrile gradient
Procedure: The determination of the logP values given in the tables and Preparation Examples above is carried out in accordance with EEC Directive 79/831 Annex V.A8 by HPLC (High Performance Liquid Chromatography) on a reverse-phase column (C 18). Temperature: 43° C.
The determination is carried out in the acidic range at pH 2.3 using the mobile phases 0.1% aqueous phosphoric acid and acetonitrile; linear gradient from 10% acetonitrile to 90% acetonitrile.
Calibration is carried out using unbranched alkan-2-ones (of 3 to 16 carbon atoms) with known logP values (determination of the logP values by the retention times using linear interpolation between two successive alkanones).

Venturia inaequalis = assay: Venturia Test (Apple)/Protective; format: in vivo; details: 240 h, protective spray, application rate 10 g/ha, evaluation 10 days after inoculation, 100% = no infection, read-out: % efficacy
Procedure: Venturia Test (Apple)/Protective
(§1) To produce a suitable preparation of active compound, 1 part by weight of active compound is mixed with the stated amounts of solvents and emulsifier, and the concentrate is diluted with water to the desired concentration.
To test for protective activity, young plants are sprayed with the preparation of active compound at the stated application rate. After the spray coating has dried on, the plants are inoculated with an aqueous conidia suspension of the apple scab pathogen Venturia inaequalis and then remain in an incubation cabin at about 20° C. and 100% relative atmospheric humidity for 1 day.
The plants are then placed in a greenhouse at about 21° C. and a relative atmospheric humidity of about 90%.
Evaluation is carried out 10 days after the inoculation. 0% means an efficacy which corresponds to that of the control, whereas an efficacy of 100% means that no infection is observed.

Botrytis cinerea = assay: Botrytis Test (Bean)/Protective; format: in vivo; details: 48 h, protective spray, application rate 100 g/ha, evaluation 2 days after inoculation, 100% = no infection, read-out: % efficacy
Procedure: Botrytis Test (Bean)/Protective
as §1
To test for protective activity, young plants are sprayed with the preparation of active compound at the stated application rate. After the spray coating has dried on, 2 small pieces of agar colonized by Botrytis cinerea are placed onto each leaf. The inoculated plants are placed in a dark chamber at about 20° C. and 100% relative atmospheric humidity.
2 days after the inoculation, the size of the infected areas on the leaves is evaluated. 0% means an efficacy which corresponds to that of the control, whereas an efficacy of 100% means that no infection is observed.

Septoria tritici = assay: In vitro test for the ED50 determination of microorganisms; format: cell-based; details: 50% inhibition of fungal growth, tested at 0.1, 1, 10 and 100 ppm, 22° C., 3-5 days, photometric 620 nm
Procedure: (§2) In Vitro Test for the ED50 Determination of Microorganisms
(§3) A methanolic solution of the active compound to be tested, mixed with the emulsifier PS16, is pipetted into the wells of microtiter plates. After the solvent has evaporated, 200 μl of potato/dextrose medium are added to each well.
(§4) Beforehand, a suitable concentration of spores or mycelium of the fungus to be tested was added to the medium.
(§5) The resulting concentrations of active compound are 0.1, 1, 10 and 100 ppm. The resulting concentration of the emulsifier is 300 ppm.
(§6) The plates are then incubated on a shaker at a temperature of 22° C. for 3-5 days, until sufficient growth can be observed in the untreated control.
(§7) Evaluation is carried out photometrically at a wavelength of 620 nm. The dose of active compound which causes a 50% inhibition of fungal growth compared to the untreated control (ED50) is calculated from the data measured at different concentrations.

Rhizoctonia solani = assay: as above; format: cell-based; details: 50% inhibition of fungal growth, tested at 0.1, 1, 10 and 100 ppm, 22° C., 3-5 days, photometric 620 nm
Procedure: as §2, §3, §4, §5, §6, §7

Row | Compound | chromatographic logP [1] | pest or weed control at 10 g/ha (Venturia inaequalis) [%] | pest or weed control at 100 g/ha (Botrytis cinerea) [%] | ED50 (Septoria tritici) [ppm] | ED50 (Rhizoctonia solani) [ppm]
1 | Cc1nc(C(F)F)c(C(=O)Nc2ccccc2-c2ccc(Br)cc2)s1 [Example 2] | 3.47 | 100 | 100 |  | 
2 | Cc1nc(C(F)F)c(C(=O)Nc2ccccc2-c2ccc(F)c(Cl)c2)s1 [Example 1, N-(3′-chloro-4′-fluoro-1,1′-biphenyl-2-yl)-2-methyl-4-(difluoromethyl)-1,3-thiazole-5-carboxamide] | 3.28 |  |  |  | 
3 | Cc1nc(C(F)F)c(C(=O)Nc2ccccc2-c2cccc(Cl)c2)s1 [Example 4] | 3.37 | 100 | 100 | 0.45 | < 0.1
4 | CSc1ccc(-c2ccccc2NC(=O)c2sc(C)nc2C(F)F)cc1 [Example 6] | 3.39 | 99 | 94 | 3.51 | 3.25
5 | Cc1nc(C(F)F)c(C(=O)Nc2ccccc2-c2ccc(C)c(Cl)c2)s1 [Example 12] | 3.62 | 100 | 100 |  | 

The next lines start with results.

Row | chromatographic logP [1] | Compound | pest or weed control at 10 g/ha (Venturia inaequalis) [%] | pest or weed control at 100 g/ha (Botrytis cinerea) [%] | ED50 (Septoria tritici) [ppm] | ED50 (Rhizoctonia solani) [ppm]
6 | 3.72 | Cc1nc(C(F)F)c(C(=O)Nc2ccccc2-c2ccc(OC(F)(F)F)cc2)s1 [Example 5] | 87 | 79 | 0.25 | < 0.1
7 | 3.58 | Cc1nc(C(F)F)c(C(=O)Nc2ccccc2-c2ccc(Cl)cc2Cl)s1 [Example 9] | 98 | 95 |  | 
8 | 3.29 | Cc1nc(C(F)F)c(C(=O)Nc2ccccc2-c2ccc(Cl)c(F)c2)s1 [Example 11] | 100 | 100 |  | 
9 | 3.77 | Cc1nc(C(F)F)c(C(=O)Nc2ccccc2-c2ccc(Cl)cc2C)s1 [Example 10] | 100 | 100 |  | 
10 | 3.52 | Cc1nc(C(F)F)c(C(=O)Nc2ccccc2-c2ccc(C(F)(F)F)cc2)s1 [Example 3] | 100 | 100 | 0.36 | < 0.1
11 | 3.09 | Cc1nc(C(F)F)c(C(=O)Nc2ccccc2-c2ccc(F)cc2)s1 [Example 7] | 100 | 94 | 0.68 | 0.48
